Key:
[1] = Cytotoxicity against human MT4 cells by MTT assay; assay type: cell-based
[2] = test system: Human immunodeficiency virus 1; assay: Antiviral activity against HIV1 3B in human MT4 cells assessed as inhibition of viral-induced cytopathic effect by MTT method; assay type: functional, organism-based; settings: Human immunodeficiency virus 1, 3B
[3] = target: Protease (Human immunodeficiency virus 1) (UniProt Q9YQ12); settings: at 1 nM
[4] = Selectivity index, ratio of CC50 for human MT4 cells to EC50 for HIV1 3B
[5] = test system: Human immunodeficiency virus 1; assay: Antiviral activity against HIV1 3B in presence of 10% fetal calf serum and alpha1 acid glycoprotein; assay type: functional, organism-based; settings: Human immunodeficiency virus 1, 3B
[6] = test system: Human immunodeficiency virus 1; assay: microbe, parasite or virus in culture; assay type: functional, organism-based; settings: Human immunodeficiency virus 1, NL432
[7] = test system: Human immunodeficiency virus 1; assay: Antiviral activity against nelfinavir-resistant HIV1 NL432; assay type: functional, organism-based; settings: Human immunodeficiency virus 1, NL432
[8] = test system: Human immunodeficiency virus 1; assay: Antiviral activity against HIV1 3B in presence of 10% fetal calf serum; assay type: functional, organism-based; settings: Human immunodeficiency virus 1, 3B
[9] = test system: Human immunodeficiency virus 1; assay: Ratio of EC50 for nelfinavir-resistant HIV1 NL432 to EC50 for wild-type HIV1 NL432; assay type: functional
[10] = test system: Human immunodeficiency virus 1; assay: microbe, parasite or virus in culture; assay type: functional, organism-based; settings: Human immunodeficiency virus 1, NL432; remark: listed apart in the source
[11] = test system: Human immunodeficiency virus 1; assay: Antiviral activity against wild type HIV1 NL432; assay type: functional, organism-based; settings: Human immunodeficiency virus 1, NL432

Sequence of Protease (Human immunodeficiency virus 1) (Q9YQ12 as listed by the source): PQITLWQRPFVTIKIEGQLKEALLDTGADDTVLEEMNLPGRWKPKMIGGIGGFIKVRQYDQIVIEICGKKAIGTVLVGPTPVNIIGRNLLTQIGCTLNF

Row | Compound | CC50 [1] | EC50 [2] | inhibition [3] | selectivity ratio ([4]; MT4 cells) | EC50 [5] | EC50 [6] | EC50 [7] | EC50 [8] | Ratio EC50 [9] | EC50 [10] | EC50 [11] | selectivity ratio ([4]; mt4)
1 | Cc1ccccc1CNC(=O)[C@H]1N(C(=O)[C@@H](O)[C@H](Cc2ccccc2)NC(=O)[C@@H](CCc2ccccc2)NS(C)(=O)=O)CSC1(C)C | 11 µM | 0.059 µM | 55% | 190 | – | – | – | – | – | – | – | –
2 | Cc1ccccc1CNC(=O)[C@H]1N(C(=O)[C@@H](O)[C@H](Cc2ccccc2)NC(=O)[C@@H](CSc2cccc3ccccc23)NS(C)(=O)=O)CSC1(C)C | 4.4 µM | 0.0064 µM | 74% | 690 | 0.347 µM | 0.013 µM | 0.00067 µM | 0.004 µM | 0.07 | 0.017 µM | 0.0093 µM | –
3 | Cc1ccccc1CNC(=O)[C@H]1N(C(=O)[C@@H](O)[C@H](Cc2ccccc2)NC(=O)[C@@H](CS(=O)(=O)c2ccc3ccccc3n2)NS(C)(=O)=O)CSC1(C)C | > 26 µM | 0.473 µM | 91% | > 55 | – | – | – | – | – | – | – | –
4 | Cc1ccc(CS(=O)(=O)C[C@@H](NS(C)(=O)=O)C(=O)N[C@@H](Cc2ccccc2)[C@H](O)C(=O)N2CSC(C)(C)[C@H]2C(=O)NCc2ccccc2C)cc1 | > 26 µM | 0.125 µM | 52% | > 210 | – | – | – | – | – | – | – | –
5 | Cc1ccccc1CNC(=O)[C@H]1N(C(=O)[C@@H](O)[C@H](Cc2ccccc2)NC(=O)[C@@H](CS(=O)(=O)c2ccc(F)cc2)NS(C)(=O)=O)CSC1(C)C | > 27 µM | 0.212 µM | 94% | > 130 | – | – | – | – | – | – | – | –
6 | Cc1ccccc1CNC(=O)[C@H]1N(C(=O)[C@@H](O)[C@H](Cc2ccccc2)NC(=O)[C@@H](CS(=O)(=O)Cc2ccccc2)NS(C)(=O)=O)CSC1(C)C | > 27 µM | 0.219 µM | 66% | > 120 | – | – | – | – | – | – | – | –
7 | Cc1ccccc1CNC(=O)[C@H]1N(C(=O)[C@@H](O)[C@H](Cc2ccccc2)NC(=O)[C@@H](CSc2ccc3ccccc3n2)NS(C)(=O)=O)CSC1(C)C | 8.5 µM | 0.169 µM | 28% | 50 | – | – | – | – | – | – | – | –
8 | COc1ccc(CS(=O)(=O)C[C@@H](NS(C)(=O)=O)C(=O)N[C@@H](Cc2ccccc2)[C@H](O)C(=O)N2CSC(C)(C)[C@H]2C(=O)NCc2ccccc2C)cc1 | > 26 µM | 0.203 µM | 66% | > 130 | – | – | – | – | – | – | – | –
9 | CC(=O)N[C@H](CSc1ccc2ccccc2c1)C(=O)N[C@@H](Cc1ccccc1)[C@H](O)C(=O)N1CSC(C)(C)[C@H]1C(=O)NCc1ccccc1C | 8.3 µM | 0.018 µM | 53% | 460 | 0.095 µM | 0.032 µM | 0.0072 µM | 0.014 µM | 0.42 | 0.065 µM | 0.017 µM | –
10 | COc1ccc(CS(=O)(=O)C[C@@H](NC(C)=O)C(=O)N[C@@H](Cc2ccccc2)[C@H](O)C(=O)N2CSC(C)(C)[C@H]2C(=O)NCc2ccccc2C)cc1 | – | – | 59% | > 260 | – | – | – | – | – | – | – | –
11 | CC(=O)N[C@H](CCc1ccccc1)C(=O)N[C@@H](Cc1ccccc1)[C@H](O)C(=O)N1CSC(C)(C)[C@H]1C(=O)NCc1ccccc1C | > 31 µM | 0.051 µM | 45% | > 610 | 0.155 µM | 0.132 µM | 0.018 µM | 0.025 µM | 0.23 | 0.101 µM | 0.078 µM | –
12 | CC(=O)N[C@H](CS(=O)(=O)Cc1ccc(C)cc1)C(=O)N[C@@H](Cc1ccccc1)[C@H](O)C(=O)N1CSC(C)(C)[C@H]1C(=O)NCc1ccccc1C | > 28 µM | 0.082 µM | 53% | > 340 | – | – | – | – | – | – | – | –
13 | CC(C)c1nc(CN(C)C(=O)N[C@H](C(=O)N[C@@H](Cc2ccccc2)C[C@H](O)[C@H](Cc2ccccc2)NC(=O)OCc2cncs2)C(C)C)cs1 [RITONAVIR] | – | – | 90% | – | 0.422 µM | – | – | 0.024 µM | – | – | – | –
14 | Cc1ccccc1CNC(=O)[C@H]1N(C(=O)[C@@H](O)[C@H](Cc2ccccc2)NC(=O)[C@@H](CSc2ccc3ccccc3c2)NS(C)(=O)=O)CSC1(C)C | 6.1 µM | 0.013 µM | 67% | 470 | 0.088 µM | 0.023 µM | 0.0008 µM | 0.008 µM | 0.05 | 0.031 µM | 0.017 µM | –
15 | CC(=O)N[C@H](CSc1ccc2ccccc2n1)C(=O)N[C@@H](Cc1ccccc1)[C@H](O)C(=O)N1CSC(C)(C)[C@H]1C(=O)NCc1ccccc1C | 9.7 µM | 0.151 µM | 27% | 64 | – | – | – | – | – | – | – | –
16 | CC(=O)N[C@H](CSCc1ccc(C)cc1)C(=O)N[C@@H](Cc1ccccc1)[C@H](O)C(=O)N1CSC(C)(C)[C@H]1C(=O)NCc1ccccc1C | 8.8 µM | 0.012 µM | 76% | 730 | 0.084 µM | 0.027 µM | 0.0036 µM | 0.012 µM | 0.16 | 0.041 µM | 0.022 µM | –
17 | CC(=O)N[C@H](CS(=O)(=O)Cc1ccccc1)C(=O)N[C@@H](Cc1ccccc1)[C@H](O)C(=O)N1CSC(C)(C)[C@H]1C(=O)NCc1ccccc1C | > 28 µM | 0.117 µM | 47% | > 240 | – | – | – | – | – | – | – | –
18 | CC(=O)N[C@H](CS(=O)(=O)c1ccc2ccccc2n1)C(=O)N[C@@H](Cc1ccccc1)[C@H](O)C(=O)N1CSC(C)(C)[C@H]1C(=O)NCc1ccccc1C | > 27 µM | 0.094 µM | 85% | > 290 | – | – | – | – | – | – | – | –
19 | Cc1ccc(CSC[C@@H](NS(C)(=O)=O)C(=O)N[C@@H](Cc2ccccc2)[C@H](O)C(=O)N2CSC(C)(C)[C@H]2C(=O)NCc2ccccc2C)cc1 | 8.9 µM | 0.017 µM | 58% | 520 | 0.11 µM | 0.043 µM | 0.0015 µM | 0.014 µM | 0.09 | 0.058 µM | 0.017 µM | –
20 | CC(=O)N[C@H](CSCc1ccccc1)C(=O)N[C@@H](Cc1ccccc1)[C@H](O)C(=O)N1CSC(C)(C)[C@H]1C(=O)NCc1ccccc1C | 15 µM | 0.015 µM | 81% | 1000 | 0.096 µM | 0.021 µM | 0.0059 µM | 0.016 µM | 0.33 | 0.04 µM | 0.018 µM | –
21 | Cc1c(O)cccc1C(=O)N[C@@H](CSc1ccccc1)[C@H](O)CN1C[C@H]2CCCC[C@H]2C[C@H]1C(=O)NC(C)(C)C | – | – | 29% | 690 | 0.606 µM | – | – | 0.021 µM | 12 | – | – | –
22 | CSC[C@H](NC(=O)COc1cccc2cnccc12)C(=O)N[C@@H](Cc1ccccc1)[C@H](O)C(=O)N1CSC[C@H]1C(=O)NC(C)(C)C | – | – | 40% | – | 0.529 µM | 0.237 µM | 0.084 µM | – | 2.3 | 0.201 µM | 0.036 µM | > 1400
23 | Cc1ccccc1CNC(=O)[C@H]1N(C(=O)[C@@H](O)[C@H](Cc2ccccc2)NC(=O)[C@@H](CSCc2ccccc2)NS(C)(=O)=O)CSC1(C)C | 9.8 µM | 0.017 µM | 66% | 580 | 0.088 µM | 0.055 µM | 0.0018 µM | 0.018 µM | 0.09 | 0.063 µM | 0.02 µM | –

Reference: ChEMBL document CHEMBL1150285, “Combination of non-natural D-amino acid derivatives and allophenylnorstatine-dimethylthioproline scaffold in HIV protease inhibitors have high efficacy in mutant HIV” (J Med Chem, 2008)
